This note sets out measurements from patent US5284837A, “Derivatives of purine, process for their preparation and a pharmaceutical preparation” (Medivir AB, priority 1988, dated 1994).

Structures can show the parent of a compound that is named as a salt. Where two headings read alike, the source gives them in different places.

A short description of data set [1]: Cellular toxicity, inhibition of H9 cell multiplication (Test II). The format is cell-based. The settings on record: human, H9 cells. Here is the method:
(§1) Test II--Cellular Toxicity
H9 cells, 2×10^7 cells per plate, are incubate in RPMI-1640 medium containing 10% fetal calf serum, 70 mg/l penicillin, 100 mg/l streptomycin and 10 mM hepes, in absence or presence of test compounds. The number of cells per plate is determined after 48 h. Cells incubated in the absence of test compounds then underwent two cell division cycles.
(§2) F5000 cells, which are human embryo cells, 1×10^5 cells per plate, are incubated in Eagle's minimal essential medium, supplemented with Earle's salts, non-essential amino acids, 10% fetal calf serum, 10 mM hepes, 70 mg/l penicillin and 100 mg/l streptomycin, in absence or presence of test compounds. The number of cells per plate is determined after 48 h. Cells incubated in the absence of test compounds underwent one cell division cycle.

In data set [2] the test system is HIV (HTLV-IIIB) in H9 cells. The data set is described as follows: Effect of compounds on HIV multiplication in H9 cells (Test I). It is filed as cell-based, human immunodeficiency virus (HTLV-IIIB). Conditions: 6-7 days, read-out: Concentration (μM) for 50% inhibition (IC50) of human immuno deficiency virus multiplication in cell culture. Here is the method:
Materials and Methods: HIV Infection of H9 Cells H9 cells, 10^5 cells per well on a 24 well plate, suspended in 2 ml RPMI-medium containing 10% fetal calf serum, 100 μg/ml pencillin, 10 μg/ml streptomycin sulfate and 2 μg/ml polybrene are exposed to HIV (HTLV-IIIB) and different concentrations of the test compounds. The plates are incubated at 37° C. in 5% CO2 for 6-7 days. The contents in each well is then homogenized with a pipette and transferred to a centrifuge tube. After centrifugation for 10 min at 1500 rpm the supernatant is removed and the cell pellet is analyzed by fixing in methanol on glass plates. Human HIV positive serum diluted 1:80 or 1:160 is added and incubated for 30 min at 37° C. The pate is then washed with phosphate-buffered saline (PBS) containing Ca2+ and Mg2+. Sheep antihuman conjugate (FITC) is added and after a new incubation the plate is again washed with PBS. Contrast staining is done with Evans blue and after drying the frequency of HIV antigen containing cells is determined in a microscope.

The nature of data set [3]: Oral bioavailability in rat (Test III). The format is in vivo. Conditions: for plasma concentration of VSA 671 after VSA 671 has been given as 6-deoxy prodrug or ester: in words. As for the experimental part:
(§3) TEST III--ORAL BIOAVAILABILITY
(§4) Oral bioavailability was determined by dosing the animals (cynomologous monkeys and rats) intravenously and orally on separate occasions with the compounds. Blood samples were taken after appropriate intervals for determination of drug level in plasma. Appropriate pharmacokinetic calculations were then carried out based on plasma concentration against time relationship.

The nature of data set [4]: Cellular toxicity, inhibition of F5000 cell multiplication (Test II). Conditions: human, f5000 cells. It is filed as cell-based. As for the experimental part:
as §1, §2

Data set [5] in a line: Oral bioavailability in monkey (Test III). The format is in vivo, cynomologous monkeys. Here is the method:
as §3, §4

[6] abbreviates: Human immunodeficiency virus 1, IIIB, H9, H9 cells.
Setting [7] is: plasma AUC relative to AUC after intravenously given VSA 671, read-out: Oral bioavailability F of compound determined as VSA 671.

For `Nc1nc2c(ncn2CC(CO)CCO)c(=O)[nH]1` (single isomer, unassigned; (-)) [VSB 647, (-)-9-(4-Hydroxy-2-hydroxymethylbutyl)guanine], in data set [1] (100 μM), the inhibition at 48 h, 100 µM was 5%. The IC50 in data set [2] (H9 cells) lay in the range of 0.1 to 7 µM. With `Nc1ncc2ncn(CC(CO)CCO)c2n1` (stereo not drawn) [VSB 212, 2-(2-Aminopurin-9yl)methyl butan-1,4-diol], the “plasma concentration of VSA 671 after VSA 671 has been given as 6-deoxy prodrug or ester” value in data set [3] is recorded as “significantly increased”. For the molecule `Nc1ncnc2c1ncn2CC(CO)CCO` (stereo not drawn) [VSC 600, 9-(4-Hydroxy-2-hydroxymethylbutyl)adenine], the inhibition at 48 h, 200 µM in data set [1] (200 μM) is 25%. The IC50 in data set [2] (setting [6]) was determined as 10 µM. The inhibition at 48 h, 500 µM in data set [4] (500 μM) was 25%. For `Nc1nc2c(ncn2CC(CO)CCO)c(=O)[nH]1` (single isomer, unassigned; (+)) [VSB 648, (+)-9-[4-hydroxy-2(hydroxymethyl)butyl]-guanine], the IC50 in data set [2] (H9 cells) lay within 1 to 5 µM.

As for `CC(=O)OCCC(COC(C)=O)Cn1cnc2c(=O)[nH]c(N)nc21` (stereo not drawn) [VSC 640, 9-[4-acetoxy-2-(acetoxymethyl)butyl]guanine.HCl], the “plasma concentration of VSA 671 after VSA 671 has been given as 6-deoxy prodrug or ester” value in data set [3] is reported as “significantly increased”.

Consider `Nc1nc2c(ncn2CC(CO)CCO)c(=O)[nH]1` (racemic) [VSA 671, 9-[4-hydroxy-2-(hydroxymethyl)butyl]guanine], for which, in data set [1] (500 μM), the inhibition at 48 h, 500 µM came out at 55%. The IC50 in data set [2] (setting [6]) is 1 to 10 µM. Besides, the bioavailability in data set [5] (setting [7]) worked out at 10%; in data set [3] (setting [7]), 11%. The molecule also gave an inhibition at 48 h, 1000 µM in data set [4] (1000 μM) of 55%.

For `CC(=O)OCCC(COC(C)=O)Cn1cnc2cnc(N)nc21` (stereo not drawn) [VSC 610, 2-(2-Aminopurin-9-yl)methylbutane-1,4-diol diacetate], the “plasma concentration of VSA 671 after VSA 671 has been given as ester of 6-deoxy prodrug” value in data set [5] (in words) is given as “significantly increased”. As to `CCC(=O)OCCC(COC(=O)CC)Cn1cnc2c(=O)[nH]c(N)nc21` (stereo not drawn) [VSC 641, 9-[4-propionoxy-2-(propionoxymethyl)butyl]guanine.HCl], the “plasma concentration of VSA 671 after VSA 671 has been given as 6-deoxy prodrug or ester” value in data set [3] was “significantly increased”.
